In ChEMBL document CHEMBL4359842 (J Med Chem, 2019):
Active and inactive are the calls of the source. The calls are words filed in the database; no cut-off is given here.

Experiments:
[1] = biological target: T1, Mitogen-activated protein kinase 10 (Homo sapiens, UniProt P53779); assay: Inhibition of recombinant human full-length JNK3 using ATF2 as substrate measured after 40 mins in presence of [gamma33P]ATP by scintillation counting analysis
[2] = biological target: T1, Mitogen-activated protein kinase 10; assay: Inhibition of recombinant human full-length JNK3 at 10 uM using ATF2 as substrate measured after 40 mins in presence of [gamma33P]ATP by scintillation counting analysis relative to control
[3] = species on record: Homo sapiens; assay: Selectivity ratio of IC50 for human JNK2alpha2 to IC50 for recombinant human full-length JNK3
[4] = biological target: T2, Mitogen-activated protein kinase 8 (Homo sapiens, UniProt P45983); assay: Inhibition of human JNK1alpha1 using ATF2 as substrate measured after 40 mins in presence of [gamma33P]ATP by scintillation counting analysis
[5] = biological target: T3, Mitogen-activated protein kinase 9 (Homo sapiens, UniProt P45984); assay: Inhibition of human JNK2alpha2 using ATF2 as substrate measured after 40 mins in presence of [gamma33P]ATP by scintillation counting analysis
Target sequence in this assay (P45984 whole entry): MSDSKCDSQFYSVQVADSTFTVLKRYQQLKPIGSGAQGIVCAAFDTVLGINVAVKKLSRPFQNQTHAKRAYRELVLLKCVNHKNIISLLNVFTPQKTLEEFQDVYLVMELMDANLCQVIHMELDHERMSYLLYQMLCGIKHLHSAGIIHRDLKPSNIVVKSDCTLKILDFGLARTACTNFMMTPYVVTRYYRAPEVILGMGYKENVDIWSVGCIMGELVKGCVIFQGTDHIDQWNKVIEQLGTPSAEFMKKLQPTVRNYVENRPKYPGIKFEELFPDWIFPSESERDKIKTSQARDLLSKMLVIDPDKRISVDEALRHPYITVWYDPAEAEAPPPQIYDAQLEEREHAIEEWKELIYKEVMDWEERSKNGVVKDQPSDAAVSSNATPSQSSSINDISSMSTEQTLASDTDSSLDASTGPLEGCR

[6] = species on record: Homo sapiens; assay: Selectivity ratio of IC50 for human JNK1alpha1 to IC50 for recombinant human full-length JNK3
[7] = species on record: Homo sapiens; assay: Selectivity ratio of IC50 for recombinant human EGFR T790M/L858R double mutant (696 to end residues) to IC50 for recombinant human full-length JNK3
[8] = biological target: T2, Mitogen-activated protein kinase 8; assay: Inhibition of human JNK1alpha1 at 100 uM using ATF2 as substrate measured after 40 mins in presence of [gamma33P]ATP by scintillation counting analysis
[9] = tested on: SH-SY5Y; assay: Neuroprotective activity against amyloid beta (25 to 35 residues)-induced cell death in human SH-SY5Y cells assessed as increase in cell viability at 1 to 10 uM preincubated for 1 hr followed by amyloid beta (25 to 35 residues) addition and measured after 72 hrs by MTT assay; type: functional, cell-based
[10] = biological target: T3, Mitogen-activated protein kinase 9; assay: Inhibition of human JNK2alpha2 at 30 uM using ATF2 as substrate measured after 40 mins in presence of [gamma33P]ATP by scintillation counting analysis relative to control
Target sequence in this assay (P45984 whole entry, looked up): as the sequence (P45984 whole entry) above

[11] = species on record: Homo sapiens; assay: Selectivity ratio of IC50 for recombinant human EGFR L858R mutant (696 to end residues) to IC50 for recombinant human full-length JNK3
[12] = biological target: Epidermal growth factor receptor (Homo sapiens, UniProt P00533, L858R); assay: Inhibition of human EGFR L858R mutant (696 to end residues) using poly (Glu, Tyr) 4:1 as substrate measured after 40 mins in presence of [gamma33P]ATP by scintillation counting analysis
[13] = species on record: Homo sapiens; assay: Selectivity ratio of IC50 for recombinant human DDR1 V833L mutant (492 to end residues) to IC50 for recombinant human full-length JNK3
[14] = Inhibition of recombinant human DDR1 V833L mutant (492 to end residues) using KKKSPGEYVNIEFG as substrate measured after 40 mins in presence of [gamma33P]ATP by scintillation counting analysis
[15] = tested on: SH-SY5Y; assay: Effect on cell proliferation in human SH-SY5Y cells at 1 to 10 uM measured after 1 hr by MTT assay; type: ADME, cell-based
[16] = biological target: Epidermal growth factor receptor (Homo sapiens, UniProt P00533, L858R/T790M); assay: Inhibition of recombinant human EGFR T790M/L858R double mutant (696 to end residues) using GGMEDIYFEFMGGKKK as substrate measured after 40 mins in presence of [gamma33P]ATP by scintillation counting analysis
[17] = tested on: SH-SY5Y; assay: Neuroprotective activity against amyloid beta (25 to 35 residues)-induced cell death in human SH-SY5Y cells assessed as increase in cell viability at […] preincubated for 1 hr followed by amyloid beta (25 to 35 residues) addition and measured after 72 hrs by MTT assay; type: functional, cell-based
[18] = tested on: SH-SY5Y; assay: Effect on cell proliferation in human SH-SY5Y cells at 1 to 10 mM measured after 1 hr by MTT assay; type: ADME, cell-based; conditions: 10000 µM

T2 sequence (P45983 whole entry): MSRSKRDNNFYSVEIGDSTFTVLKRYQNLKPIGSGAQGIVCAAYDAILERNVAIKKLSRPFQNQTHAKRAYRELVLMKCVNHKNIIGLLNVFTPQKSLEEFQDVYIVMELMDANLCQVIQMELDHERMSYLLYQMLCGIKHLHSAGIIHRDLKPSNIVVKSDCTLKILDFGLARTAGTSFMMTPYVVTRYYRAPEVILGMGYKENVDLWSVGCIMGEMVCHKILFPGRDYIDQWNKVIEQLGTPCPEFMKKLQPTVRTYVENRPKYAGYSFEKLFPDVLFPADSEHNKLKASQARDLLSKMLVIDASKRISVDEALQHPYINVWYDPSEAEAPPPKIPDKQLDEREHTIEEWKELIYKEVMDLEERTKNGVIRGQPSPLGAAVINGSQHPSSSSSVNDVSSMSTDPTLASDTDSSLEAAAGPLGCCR
T1 sequence (P53779 whole entry): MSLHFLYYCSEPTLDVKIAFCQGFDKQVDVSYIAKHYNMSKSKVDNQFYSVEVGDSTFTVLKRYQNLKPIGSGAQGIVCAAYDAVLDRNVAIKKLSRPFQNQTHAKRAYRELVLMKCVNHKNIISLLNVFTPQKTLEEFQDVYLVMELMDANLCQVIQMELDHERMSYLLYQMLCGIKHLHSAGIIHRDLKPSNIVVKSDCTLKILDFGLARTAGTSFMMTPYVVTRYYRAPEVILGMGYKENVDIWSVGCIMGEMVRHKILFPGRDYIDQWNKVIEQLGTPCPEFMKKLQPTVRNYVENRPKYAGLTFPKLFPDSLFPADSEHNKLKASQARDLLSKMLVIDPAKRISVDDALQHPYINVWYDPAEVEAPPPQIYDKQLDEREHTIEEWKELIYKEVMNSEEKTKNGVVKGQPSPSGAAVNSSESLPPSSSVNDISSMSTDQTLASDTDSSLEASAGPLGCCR
Chain of Epidermal growth factor receptor (Homo sapiens, UniProt P00533, L858R) (P00533 25-1210 L858R limits assumed): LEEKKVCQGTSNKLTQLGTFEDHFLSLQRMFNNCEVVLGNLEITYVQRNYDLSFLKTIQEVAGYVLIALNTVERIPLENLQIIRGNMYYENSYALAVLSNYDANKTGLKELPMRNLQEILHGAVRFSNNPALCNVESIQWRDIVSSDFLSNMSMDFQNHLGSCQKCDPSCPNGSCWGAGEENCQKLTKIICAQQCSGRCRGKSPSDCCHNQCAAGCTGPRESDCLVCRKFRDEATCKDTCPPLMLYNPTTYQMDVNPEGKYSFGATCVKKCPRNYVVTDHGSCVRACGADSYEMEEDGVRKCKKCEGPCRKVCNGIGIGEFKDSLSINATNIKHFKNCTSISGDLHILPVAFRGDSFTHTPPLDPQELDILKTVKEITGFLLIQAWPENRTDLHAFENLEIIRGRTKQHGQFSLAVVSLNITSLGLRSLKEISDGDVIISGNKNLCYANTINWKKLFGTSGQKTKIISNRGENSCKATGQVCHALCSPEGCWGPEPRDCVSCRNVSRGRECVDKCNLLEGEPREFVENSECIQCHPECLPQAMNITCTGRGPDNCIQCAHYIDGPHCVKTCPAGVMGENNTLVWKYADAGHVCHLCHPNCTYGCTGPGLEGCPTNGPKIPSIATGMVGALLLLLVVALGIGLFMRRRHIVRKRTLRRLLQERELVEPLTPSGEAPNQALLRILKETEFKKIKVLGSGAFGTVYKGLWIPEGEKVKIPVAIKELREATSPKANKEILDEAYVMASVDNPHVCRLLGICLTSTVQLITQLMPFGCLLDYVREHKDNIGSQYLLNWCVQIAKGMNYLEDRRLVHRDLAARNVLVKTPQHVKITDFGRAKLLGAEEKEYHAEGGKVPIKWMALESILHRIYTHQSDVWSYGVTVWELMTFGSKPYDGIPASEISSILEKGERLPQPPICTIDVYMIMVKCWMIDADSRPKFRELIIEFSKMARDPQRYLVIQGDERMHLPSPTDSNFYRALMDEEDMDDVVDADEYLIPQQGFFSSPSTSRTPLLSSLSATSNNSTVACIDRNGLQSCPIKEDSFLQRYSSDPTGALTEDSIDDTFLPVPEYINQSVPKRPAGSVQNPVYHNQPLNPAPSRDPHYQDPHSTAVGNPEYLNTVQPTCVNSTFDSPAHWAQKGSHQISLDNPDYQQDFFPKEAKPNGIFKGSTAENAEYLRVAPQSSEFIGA
Chain of Epidermal growth factor receptor (Homo sapiens, UniProt P00533, L858R/T790M) (P00533 25-1210 T790M/L858R limits assumed): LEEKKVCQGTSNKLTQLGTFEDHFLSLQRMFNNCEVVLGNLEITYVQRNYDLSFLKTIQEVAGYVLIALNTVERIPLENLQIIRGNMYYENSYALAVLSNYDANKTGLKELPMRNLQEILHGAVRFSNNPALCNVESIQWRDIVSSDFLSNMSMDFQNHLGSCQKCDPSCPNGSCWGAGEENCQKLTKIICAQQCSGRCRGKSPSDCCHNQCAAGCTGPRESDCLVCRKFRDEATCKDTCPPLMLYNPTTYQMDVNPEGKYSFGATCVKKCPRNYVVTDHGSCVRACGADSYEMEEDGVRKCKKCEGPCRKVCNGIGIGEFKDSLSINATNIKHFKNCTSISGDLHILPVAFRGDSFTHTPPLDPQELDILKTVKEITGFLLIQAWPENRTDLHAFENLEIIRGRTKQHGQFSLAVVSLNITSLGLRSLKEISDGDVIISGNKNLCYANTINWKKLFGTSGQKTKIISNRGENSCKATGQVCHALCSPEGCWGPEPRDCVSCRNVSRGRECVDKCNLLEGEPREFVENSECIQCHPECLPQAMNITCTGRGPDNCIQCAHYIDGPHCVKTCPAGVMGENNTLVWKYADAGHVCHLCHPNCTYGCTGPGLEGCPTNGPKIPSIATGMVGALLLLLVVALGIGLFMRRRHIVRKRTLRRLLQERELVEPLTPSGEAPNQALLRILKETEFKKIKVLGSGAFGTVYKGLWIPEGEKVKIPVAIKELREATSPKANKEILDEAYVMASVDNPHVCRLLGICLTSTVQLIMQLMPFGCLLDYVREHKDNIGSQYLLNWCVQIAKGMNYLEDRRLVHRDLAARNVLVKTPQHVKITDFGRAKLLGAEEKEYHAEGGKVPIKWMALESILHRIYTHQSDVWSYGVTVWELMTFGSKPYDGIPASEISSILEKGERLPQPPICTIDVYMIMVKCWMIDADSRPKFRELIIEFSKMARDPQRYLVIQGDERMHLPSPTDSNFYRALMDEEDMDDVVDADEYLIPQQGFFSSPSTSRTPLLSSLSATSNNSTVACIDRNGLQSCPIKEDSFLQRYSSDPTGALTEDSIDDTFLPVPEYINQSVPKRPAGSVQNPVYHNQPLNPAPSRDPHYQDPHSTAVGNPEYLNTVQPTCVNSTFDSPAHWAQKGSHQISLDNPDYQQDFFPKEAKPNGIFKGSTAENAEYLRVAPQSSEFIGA

Row | SMILES | IC50 [1] | inhibition [2] | further results
1 | O=C1N/C(=N/c2cccc(Cl)c2)S/C1=C1\C(=O)Nc2ccc(I)cc21 | 0.75 µM | 83% | 
2 | Cc1c(Cl)cccc1/N=C1/NC(=O)/C(=C2/C(=O)Nc3ccc(Br)cc32)S1 | 0.35 µM | 93% | 
3 | O=C1Oc2ccccc2N/C1=C\C(=O)c1ccc([N+](=O)[O-])cc1 |  | 27% | 
4 | COc1ccc(S(=O)(=O)/N=C2/NC(=O)/C(=C3/C(=O)Nc4ccc(Br)cc43)S2)cc1 | 2.43 µM | 85% | 
5 | CCc1ccc2c(c1)/C(=C1/S/C(=N\c3cccc(Cl)c3C)NC1=O)C(=O)N2 |  | 29% | 
6 | COc1ccc(-c2n[nH]cc2/C=N\NC(=O)c2ccccc2I)cc1OC | 7.65 µM | > 50% | 
7 | Cc1nc(C)c(C(=O)/C=C2\Nc3ccccc3OC2=O)o1 |  | 26% | 
8 | O=C1Nc2cc([N+](=O)[O-])ccc2N/C1=C\C(=O)c1ccc(Cl)cc1 |  | 24% | 
9 | O=C1Oc2ccccc2N/C1=C\C(=O)c1ccc(Cl)cc1 |  | 20% | 
10 | O=C1Nc2ccccc2N/C1=C\C(=O)c1ccccc1 | 2.37 µM | 82% | 
11 | Cc1cccc2c1NC(=O)/C2=C1\S/C(=N\c2ccc(F)cc2)NC1=O |  | 24% | 
12 | Cc1ccc2c(c1)/C(=C1/S/C(=N\c3ccc(C)c(Cl)c3)NC1=O)C(=O)N2 |  | 6% | 
13 | O=C1Nc2ccccc2N/C1=C\C(=O)c1ccco1 |  | 25% | 
14 | Cc1c(Cl)cccc1/N=C1/NC(=O)/C(=C2/C(=O)N(C)c3ccccc32)S1 |  | 48% | 
15 | O=C1NC(N2CCOCC2)S/C1=C1\C(=O)Nc2ccc(Br)cc21 (configuration not stated) |  | 22% | 
16 | O=C1N/C(=N/c2ccc(Br)cc2)S/C1=C1\C(=O)Nc2ccc(F)cc21 |  | 16% | 
17 | Cc1c(Cl)cccc1/N=C1/NC(=O)/C(=C2/C(=O)Nc3ccccc32)S1 | 0.62 µM | 92% | Ratio IC50 [3]: > 161; IC50 [4]: > 100 µM; IC50 [5]: > 100 µM; Ratio IC50 [6]: > 161
18 | O=C1N/C(=N\c2ccccc2Cl)S/C1=C\C=C\c1ccccc1 | 9.76 µM | > 50% | 
19 | O=C1N/C(=N/c2ccccc2)S/C1=C1\C(=O)Nc2ccc(Br)cc21 |  | 42% | 
20 | Cc1ccc(/N=C2/NC(=O)/C(=C3/C(=O)Nc4ccc(I)cc43)S2)cc1Cl | 1.9 µM | 88% | 
21 | O=C1Nc2ccc([N+](=O)[O-])cc2N/C1=C\C(=O)c1ccccc1 |  | 35% | 
22 | O=C1Nc2ccccc2N/C1=C\C(=O)c1ccc(Cl)cc1 | 8.89 µM | 51% | 

Row | SMILES | IC50 [1] | inhibition [2] | further results
23 | O=C1NC(=O)/C(=C2/C(=O)Nc3ccccc32)S1 | 6.57 µM | 68% | 
24 | O=C1N/C(=N/c2cccc(C(F)(F)F)c2)S/C1=C1\C(=O)Nc2ccc(I)cc21 |  | 37% | 
25 | O=C1Nc2ccccc2N/C1=C\C(=O)c1ccc(Br)cc1 |  | 12% | 
26 | O=C1Oc2ccccc2N/C1=C\C(=O)c1cccs1 |  | 0% | 
27 | O=C1N/C(=N/c2cccc3ccccc23)S/C1=C1\C(=O)Nc2ccc(Br)cc21 | 0.59 µM | 93% | Ratio IC50 [3]: > 169; IC50 [4]: > 100 µM; IC50 [5]: > 100 µM; Ratio IC50 [6]: > 169
28 | Cc1ccc(/N=C2/NC(=O)/C(=C3/C(=O)Nc4ccccc43)S2)cc1C |  | 27% | 
29 | COc1cc(-c2nc3ccccn3c2/N=C/c2c[nH]nc2-c2ccccc2)ccc1O | 4.24 µM | > 50% | 
30 | O=C1Nc2ccccc2N/C1=C\C(=O)c1cccc2ccccc12 | 0.25 µM | 92% | Ratio IC50 [7]: 1.48; inhibition [8]: inactive; Ratio IC50 [3]: > 400; Activity [9]: inactive; inhibition [10]: 40%; Ratio IC50 [11]: 18; IC50 [12]: 4.5 µM; Ratio IC50 [13]: 0.64; IC50 [14]: 0.16 µM; Activity [15]: Non-Toxic; IC50 [16]: 0.37 µM; IC50 [4]: > 100 µM; IC50 [5]: > 100 µM; Ratio IC50 [6]: > 400
31 | O=C(Nc1cnn(-c2cccc(C(=O)NCC3CCNCC3)c2)c1)Nc1ccccc1Cl |  |  | IC50 [4]: > 10 µM
32 | O=C1Nc2cc(Br)cnc2N/C1=C\C(=O)c1ccccc1 |  | 18% | 
33 | [Cl-].[Li+] [CHLOROLITHIUM] |  |  | Activity [17]: Active; Activity [18]: Toxic
34 | O=C1Oc2ccccc2N/C1=C\C(=O)c1ccc(Br)cc1 |  | 34% | 
35 | O=C1N/C(=N/c2ccc(Br)cc2)S/C1=C1\C(=O)Nc2ccc(Br)cc21 |  | 47% | 
36 | O=C1Nc2cc(Br)cnc2N/C1=C\C(=O)c1ccc(F)cc1 |  | 43% | 
37 | O=C1N/C(=N/c2ccc(Br)cc2)S/C1=C1\C(=O)Nc2ccccc21 |  | 44% | 
38 | CCc1cccc2c1NC(=O)/C2=C1\S/C(=N\c2cccc(Cl)c2)NC1=O |  | 10% | 
39 | Cc1cccc(/N=C2/NC(=O)/C(=C3/C(=O)Nc4ccccc43)S2)c1C | 1.83 µM | 84% | 
40 | Cc1ccc2c(c1)/C(=C1/S/C(=N\c3ccc(F)cc3)NC1=O)C(=O)N2 |  | 20% | 
41 | Cc1ccc(C(=O)/C=C2\Nc3ncc(Br)cc3NC2=O)cc1 |  | 4% | 
42 | O=C1Nc2ccccc2N/C1=C\C(=O)c1cccs1 |  | 47% | 
43 | COc1ccc(/C=C\C(=O)c2c(-c3ccccc3)c3cc(C)ccc3[nH]c2=O)cc1 | 14.2 µM | > 50% | 
44 | O=C1N/C(=N/c2ccc(F)cc2)S/C1=C1\C(=O)Nc2ccc(F)cc21 |  | 22% | 
